Measurements taken from article PMC11714206, “Massively Parallel Screening of Toll/Interleukin‐1 Receptor (TIR)‐Derived Peptides Reveals Multiple Toll‐Like Receptors (TLRs)‐Targeting Immunomodulatory Peptides” (Advanced Science, 2024).

Biological target: T1, MyD88^TIR (Homo sapiens, UniProt Q99836)
T1 construct: MyD88 (residues 148–296); 6xHis; made in house; host or cells: E. coli BL21 (DE3)
Test: T‐Surf phage library (P8 and P3) selection against MyD88^TIR, four rounds, NGS read counts
Type: binding
Details: for P8_MyD88 Rank (after) / P8_MyD88 Rank (before): P8 library; for Population: 4th round of selection against MyD88 TIR, share of NGS reads; for P3_MyD88 Rank (after) / P3_MyD88 Rank (before): P3 library
Outline: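 Read counts come from NGS of phage pools after the fourth selection round, barcoded by 20-cycle PCR and filtered for quality ≥30. Each round: phage incubated 1 h at RT on immobilised TIR protein (5 µg mL^−1, BSA-blocked), washed, HCl-eluted and amplified in E. coli TG1.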

[1] = P8_MyD88: rank by count after grouping
[2] = P8_MyD88: rank by count before grouping
[3] = P3_MyD88: rank by count after grouping
[4] = P3_MyD88: rank by count before grouping
[5] = selection against MyD88, rank by count after grouping
[6] = selection against MyD88, rank by count before grouping
[7] = P3_MyD88 pool: P3 T-Surf phage library
[8] = P8_MyD88 pool: P8 T-Surf phage library
[9] = selection against MyD88 TIR, rank by count after grouping
[10] = selection against MyD88 TIR, rank by count before grouping
[11] = P8_MyD88: rank by NGS read count after grouping
[12] = P8_MyD88: rank by NGS read count before grouping
[13] = 4R selection against MyD88, rank after grouping
[14] = 4R selection against MyD88, rank before grouping
[15] = selection against MyD88, rank after grouping
[16] = selection against MyD88, rank before grouping

T1 sequence (Q99836 148-296): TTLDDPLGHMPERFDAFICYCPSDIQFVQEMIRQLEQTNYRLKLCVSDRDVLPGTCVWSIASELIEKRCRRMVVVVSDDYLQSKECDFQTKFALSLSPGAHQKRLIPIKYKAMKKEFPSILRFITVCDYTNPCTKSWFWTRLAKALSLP

Substance: DFRSHLIETFGRMFIN
- Rank (after) [1]: 465
- Rank (before) [2]: 2370

Substance: DPQDLDWIYERLVSRF
- Rank (after) [1]: 436
- Rank (before) [2]: 2831

Substance: SSFRDGLWRLLELSKT
- Rank (after) [3]: 106
- Rank (before) [4]: 1198

Substance: YPQELVLFYELLGSLV
- P8_MyD88 Rank (after) [5]: 699
- P8_MyD88 Rank (before) [6]: 2101

Substance: SSFREGLLRLLELNKK
- Rank (after) [3]: 139
- Rank (before) [4]: 3237

Substance: SSFRVGLWRLLELSKK
- Population [7]: 0.00291%

Substance: ELWVLRYLLPTLEEQQ
- Rank (after) [1]: 157
- Rank (before) [2]: 173
- Population [8]: 0.00809%

Substance: YLMWPQEEEEIPLFWH
- P8_MyD88 Rank (after) [9]: 257
- P8_MyD88 Rank (before) [10]: 447

Substance: WALDERLIIQYANETM
- P8_MyD88 Rank (after) [5]: 679
- P8_MyD88 Rank (before) [6]: 1510

Substance: YLQWGYPCFWDRLRFA
- P3_MyD88 Rank (after) [9]: 251
- P3_MyD88 Rank (before) [10]: 1559

Substance: SAAYYEFGERLIGRVE
- Rank (after) [11]: 873
- Rank (before) [12]: 3705

Substance: TYLWWVEDERGQEYFW
- P8_MyD88 Rank (after) [9]: 221
- P8_MyD88 Rank (before) [10]: 370

Substance: WAFASNMAQFWDRLYS
- Rank (after) [11]: 878
- Rank (before) [12]: 1395

Substance: PQEREWFYERLVSLIL
- Rank (after) [11]: 991
- Rank (before) [12]: 3499

Substance: NQWRNELTPAANLSGW
- P3_MyD88 Rank (after) [5]: 698
- P3_MyD88 Rank (before) [6]: 3527

Substance: SSFREGPWRLLELSKN
- P3_MyD88 Rank (after) [13]: 609
- P3_MyD88 Rank (before) [14]: 3217

Substance: KEPENYRFALHERDFP
- P3_MyD88 Rank (after) [13]: 662
- P3_MyD88 Rank (before) [14]: 3685

Substance: DLLLSEFQSIFARRTV
- P8_MyD88 Rank (after) [15]: 531
- P8_MyD88 Rank (before) [16]: 2593

Substance: GRYDELFMTETDERKC
- P3_MyD88 Rank (after) [13]: 603
- P3_MyD88 Rank (before) [14]: 1852

Substance: AVDKETDKIQTPLEM
- Rank (after) [3]: 115
- Rank (before) [4]: 601

Substance: QYSDTLLEHTANFRM
- Rank (after) [3]: 392
- Rank (before) [4]: 2842

Substance: RGFHWTEWENFVDIED
- Rank (after) [11]: 968
- Rank (before) [12]: 3399

Substance: WFWQSLRNTIIMDNQA
- P8_MyD88 Rank (after) [13]: 605
- P8_MyD88 Rank (before) [14]: 1355

Substance: DHHLDLPRGKAIKPEILS
- Population [7]: 0.0032%

Substance: DPQGLVCYYERLVSLL
- P8_MyD88 Rank (after) [13]: 595
- P8_MyD88 Rank (before) [14]: 2662

Substance: DPMVAEWVLNHLRFEL
- P8_MyD88 Rank (after) [9]: 193
- P8_MyD88 Rank (before) [10]: 246

Substance: SSFREGLWRLLELSET
- Rank (after) [3]: 145
- Rank (before) [4]: 1199

Substance: RVAHEISTKMKIFATI
- P3_MyD88 Rank (after) [15]: 559
- P3_MyD88 Rank (before) [16]: 2682

Substance: QDLEQFYERLVSLI
- P8_MyD88 Rank (after) [5]: 685
- P8_MyD88 Rank (before) [6]: 3567

Substance: SNFRKGLSRLLELSKK
- P3_MyD88 Rank (after) [15]: 572
- P3_MyD88 Rank (before) [16]: 3283

Substance: YTALTNCGFHTFRDNV
- P3_MyD88 Rank (after) [9]: 208
- P3_MyD88 Rank (before) [10]: 1649

Substance: WALEELRLIMELHSV
- P8_MyD88 Rank (after) [15]: 504
- P8_MyD88 Rank (before) [16]: 1525

Substance: DPLHLDWHYERLVSTD
- P8_MyD88 Rank (after) [5]: 680
- P8_MyD88 Rank (before) [6]: 2615

Substance: LGTHEISKEMKIFATI
- P3_MyD88 Rank (after) [15]: 571
- P3_MyD88 Rank (before) [16]: 2323

Substance: SENYATRPWAPDELVL
- P3_MyD88 Rank (after) [13]: 673
- P3_MyD88 Rank (before) [14]: 2999

Substance: DHHLDLPRGKAIKREILG
- Population [7]: 0.00437%

Substance: FDARTWFFQEMGIIVE
- P8_MyD88 Rank (after) [13]: 603
- P8_MyD88 Rank (before) [14]: 1307

Substance: SSFRECLWRLLELSKK
- Population [7]: 0.00466%

Substance: DPQDLHGIYERLVILF
- P8_MyD88 Rank (after) [13]: 666
- P8_MyD88 Rank (before) [14]: 2903

Substance: RSFREGLWRLLELRKK
- P3_MyD88 Rank (after) [13]: 629
- P3_MyD88 Rank (before) [14]: 2693

Substance: KMQKWKDALYEAPNL
- Rank (after) [3]: 113
- Rank (before) [4]: 1321

Substance: SEKYAKSPWAKVGLVL
- P3_MyD88 Rank (after) [15]: 548
- P3_MyD88 Rank (before) [16]: 3001

Substance: LKVESWRQALAKAGRL
- P3_MyD88 Rank (after) [9]: 197
- P3_MyD88 Rank (before) [10]: 2486

Substance: KEVEGWRGALTKKASL
- P3_MyD88 Rank (after) [13]: 626
- P3_MyD88 Rank (before) [14]: 3614

Substance: SRLCVMCWKNCVLPN
- P3_MyD88 Rank (after) [13]: 624
- P3_MyD88 Rank (before) [14]: 3279

Substance: IDDDHLYAALVQAGIL
- P8_MyD88 Rank (after) [13]: 639
- P8_MyD88 Rank (before) [14]: 3622

Substance: EPQDLDWLYERLVSLF
- Rank (after) [11]: 1009
- Rank (before) [12]: 3148

Substance: WALDELLKFCMRMKP
- P8_MyD88 Rank (after) [15]: 520
- P8_MyD88 Rank (before) [16]: 1471

Substance: NQWRNALTKVASL
- Population [7]: 0.00378%

Substance: SSLREGLWRLLELSKK
- Population [7]: 0.00291%

Substance: DWVWDYLLQSGRPSG
- Rank (after) [11]: 932
- Rank (before) [12]: 2451

Substance: YYFTDWDSEAEIIQKM
- Rank (after) [1]: 112
- Rank (before) [2]: 118
- Population [8]: 0.02%

Substance: RERPVGAQRGVRSLAT
- Rank (after) [3]: 469
- Rank (before) [4]: 3286

Substance: DPQDLQCSSERLVSLI
- P8_MyD88 Rank (after) [5]: 691
- P8_MyD88 Rank (before) [6]: 2906

Substance: WAQEQDGFWVRLIEAL
- Rank (after) [1]: 449
- Rank (before) [2]: 878

Substance: YTALTNSSFHTFLDND
- P3_MyD88 Rank (after) [9]: 219
- P3_MyD88 Rank (before) [10]: 1696

Substance: PQDLEWFYERLVTHVLLRHL
- P8_MyD88 Rank (after) [15]: 566
- P8_MyD88 Rank (before) [16]: 3461

Substance: LGYHWVVWEYFVGIED
- P8_MyD88 Rank (after) [13]: 594
- P8_MyD88 Rank (before) [14]: 3231

Substance: RSSAFQQQLVMALKAQ
- P3_MyD88 Rank (after) [13]: 643
- P3_MyD88 Rank (before) [14]: 2616

Substance: SSFREGLRRLLELSKK
- Population [7]: 0.00291%

Substance: DTKLKKGRKHCAGTAA
- Rank (after) [3]: 454
- Rank (before) [4]: 2099

Substance: YTALTNSGFPTFRDHD
- Rank (after) [3]: 171
- Rank (before) [4]: 1662

Substance: WALIELRTIMELWSGN
- P8_MyD88 Rank (after) [9]: 220
- P8_MyD88 Rank (before) [10]: 377

Substance: YASSWWLRELLQIA
- P8_MyD88 Rank (after) [5]: 686
- P8_MyD88 Rank (before) [6]: 1851

Substance: WALDEVLQILRARELF
- Rank (after) [1]: 419
- Rank (before) [2]: 1421

Substance: YASYDDFWDRLIRMIE
- P8_MyD88 Rank (after) [9]: 248
- P8_MyD88 Rank (before) [10]: 439

Substance: VDPTHIRNQTGRYEKA
- P3_MyD88 Rank (after) [13]: 642
- P3_MyD88 Rank (before) [14]: 1768

Substance: NELVHEWSSKLMSLGV
- P3_MyD88 Rank (after) [9]: 287
- P3_MyD88 Rank (before) [10]: 3397

Substance: YELAFSHCCLFEGHST
- Rank (after) [11]: 1007
- Rank (before) [12]: 1925

Substance: EIVKFVLAKLVHLEHP
- Rank (after) [3]: 409
- Rank (before) [4]: 2224

Substance: YELDFSHFCCLMARR
- Rank (after) [11]: 929
- Rank (before) [12]: 1947

Substance: AWVGDYLLPNLEGPAG
- P8_MyD88 Rank (after) [13]: 672
- P8_MyD88 Rank (before) [14]: 2318

Substance: DWEWEYLRPNLEGTAG
- P8_MyD88 Rank (after) [5]: 768
- P8_MyD88 Rank (before) [6]: 2488

Substance: YAFTGHLHHALRLNKIETF
- Rank (after) [3]: 95
- Rank (before) [4]: 278

Substance: FIRYLVWGLRDERLNL
- P8_MyD88 Rank (after) [9]: 208
- P8_MyD88 Rank (before) [10]: 297

Substance: WALQELLEILKANREL
- Rank (after) [1]: 149
- Rank (before) [2]: 168
- Population [8]: 0.00848%

Substance: WFLFTVRSAIYAMSPA
- Rank (after) [11]: 921
- Rank (before) [12]: 1358

Substance: SSFREGL*RLLELSKK
- Population [7]: 0.00466%

Substance: FFSGFREQEDFISKRW
- P8_MyD88 Rank (after) [5]: 681
- P8_MyD88 Rank (before) [6]: 1297
